From ChEMBL document CHEMBL1147170, “Synthesis and biological evaluation of two glycerolipidic prodrugs of didanosine for direct lymphatic delivery against HIV” (Bioorg Med Chem Lett, 2007) come the findings set out here.

The nature of data set [1]: (§1) Cytotoxicity against phytohemagglutininin-activated human PBMC after 7 days by MTT assay. It is filed as cell-based. The following applies: phytohemagglutinin-activated PBMC, read-out: CD50. Background: Tetrazolium dyes change colour on reduction, which living cells bring about.
The test system of data set [2] is PBMC. Described as §1. It is filed as cell-based. The following applies: pbmc, 168 h.
Data set [3] has as its system Human immunodeficiency virus 1. As to the kind of experiment: Antiviral activity against HIV1 LAI activity in phytohemagglutininin-activated human PBMC assessed as viral replication after 7 days. The following applies: for EC50: Human immunodeficiency virus 1, LAI, 168 h, read-out: ED50 (the source's name). It is filed as functional.

In the case of `CCCCCCCCCCCCCCCC(=O)OCC(COC(=O)CCCCCCCCCCCCCCC)OC(=O)CCCC(=O)OC[C@@H]1CC[C@H](n2cnc3c(=O)[nH]cnc32)O1`, the CC50 at 168 h in data set [1] was over 12 µM. In data set [2], this compound returned a CD90 of over 12 µM. In addition, in data set [3], the ED90 was over 12 µM and the EC50 worked out at 2.8 µM.

Regarding `CCCCCCCCCCCCCCCC(=O)OCC(COC(=O)CCCCCCCCCCCCCCC)OC(=O)CCCCCOP(=O)(O)OC[C@@H]1CC[C@H](n2cnc3c(=O)[nH]cnc32)O1`, the CC50 at 168 h in data set [1] is over 50 µM. For the same compound, in data set [2], the CD90 was over 50 µM. Moreover, in data set [3], the ED90 is over 50 µM and the EC50 turned out to be 28.5 µM.

Consider `O=c1[nH]cnc2c1ncn2[C@H]1CC[C@@H](CO)O1` [DIDANOSINE], for which the CC50 at 168 h in data set [1] was found to be 40 µM. Further, the CD90 in data set [2] was over 50 µM. Further, in data set [3], the ED90 amounted to 4.8 µM and the EC50 is 1.2 µM.
